The target in the test is T1, Alexa fluor-647 labeled human PD-L1-Ig binding to Jurkat cell line over-expressing human PD-1 (Homo sapiens, UniProt Q15116).
T1 construct: expressed in transfected cells; host or cells: Jurkat
As to the kind of experiment: Jurkat-PD-1 Cell Binding High-Content Screening Assay (CBA): Method 3 (Alexa fluor-647 labeled PD-L1-Ig). Particulars: Jurkat-PD-1 cells, Alexa fluor-647 labeled PD-L1-Ig 177 nM. The method, boiled down:
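Jurkat cells over-expressing human PD-1 in RPMI/10% FCS were preincubated 2 h at 37 °C with compound, then exposed 1 h to Alexa fluor-647 labeled human PD-L1-Ig (177 nM final). Cells fixed in 4% paraformaldehyde with Hoechst 33342 and binding quantified by high-content imaging.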

[1] abbreviates: head μM, read-out: CBA Method 3 μM.

Like-named read-outs stand apart in the source and are kept apart here. Numbered stars: 1 amine (or outer) side, 2 acyl side, 3 side chain; on linkers, the order of the positions; unused ones are H or OH. Bridge positions count the residues as written; N and C are the ends. Square brackets hold non-standard residues; d marks the D form. Peptide text beside a SMILES is read from it. * marks the point of attachment. Bip(4'-COOH) = N[C@@H](Cc1ccc(-c2ccc(C(=O)O)cc2)cc1)C(=O)O; Bip(4'-NHAc) = CC(=O)Nc1ccc(-c2ccc(C[C@H](N)C(=O)O)cc2)cc1; Phe(3-CF3) = N[C@@H](Cc1cccc(C(F)(F)F)c1)C(=O)O; Ala(morpholin-4-yl) = N[C@@H](CN1CCOCC1)C(=O)O; Phe(4-COOH) = N[C@@H](Cc1ccc(C(=O)O)cc1)C(=O)O; Bip = N[C@@H](Cc1ccc(-c2ccccc2)cc1)C(=O)O; Phe(3-Me) = Cc1cccc(C[C@H](N)C(=O)O)c1; Gla = N[C@@H](CC(C(=O)O)C(=O)O)C(=O)O; Glutaryl = O=C(CCCC(=O)[*:2])[*:1]; Val(3-OH) = CC(C)(O)[C@H](N)C(=O)O; hCha = N[C@@H](CCC1CCCCC1)C(=O)O; hPhe = N[C@@H](CCc1ccccc1)C(=O)O; Cha = N[C@@H](CC1CCCCC1)C(=O)O; Carboxymethyl = O=C(O)C*; NMeA = CN[C@@H](C)C(=O)O; Orn = NCCC[C@H](N)C(=O)O; Dab = NCC[C@H](N)C(=O)O; Dap = NC[C@H](N)C(=O)O

T1 sequence (Q15116 25-288): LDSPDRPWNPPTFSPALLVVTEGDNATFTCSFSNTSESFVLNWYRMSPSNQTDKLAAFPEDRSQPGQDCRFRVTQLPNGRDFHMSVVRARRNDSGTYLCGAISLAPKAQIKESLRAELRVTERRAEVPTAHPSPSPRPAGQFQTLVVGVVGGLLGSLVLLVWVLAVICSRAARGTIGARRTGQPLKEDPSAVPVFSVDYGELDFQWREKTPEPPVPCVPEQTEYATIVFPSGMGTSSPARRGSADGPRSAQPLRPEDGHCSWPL

Take `Cc1cccc(C[C@@H]2NC(=O)[C@H](CC(=O)O)NC(=O)[C@H](Cc3ccc(C(=O)O)cc3)NC(=O)[C@H](CN3CCOCC3)NC(=O)CSC[C@@H](C(=O)N[C@@H](CCN)C(N)=O)NC(=O)[C@H](CCC(=O)O)NC(=O)[C@H](C(C)C)NC(=O)[C@H](CC3CCCCC3)NC(=O)[C@H](CCN)NC(=O)[C@@H](CC(C)C)NC(=O)[C@H](C)N(C)C(=O)[C@H](Cc3ccc(C(=O)O)cc3)NC(=O)[C@H](Cc3ccc(-c4ccccc4)cc3)NC(=O)[C@H](Cc3ccc(C(=O)O)cc3)NC2=O)c1` [Example 5259] ({CH2CO}-[Ala(morpholin-4-yl)][Phe(4-COOH)]D[Phe(3-Me)][Phe(4-COOH)][Bip][Phe(4-COOH)][NMeA][dL][Dab][Cha]VEC[Dab]-NH2; thioether N-14): the IC50 under setting [1] stood at 0.01 µM. With `CC(=O)Nc1ccc(-c2ccc(C[C@@H]3NC(=O)[C@H](Cc4cccc(C)c4)NC(=O)[C@H](CC(=O)O)NC(=O)[C@H](Cc4ccc(-c5ccc(C(=O)O)cc5)cc4)NC(=O)[C@H](CN4CCOCC4)NC(=O)CSC[C@@H](C(=O)N[C@@H](CCN)C(N)=O)NC(=O)[C@H](CO)NC(=O)[C@H](C(C)(C)O)NC(=O)[C@H](CC4CCCCC4)NC(=O)[C@H](Cc4cnc[nH]4)NC(=O)[C@@H](CC(C)C)NC(=O)[C@H](C)N(C)C(=O)[C@H](Cc4ccc(C(=O)O)cc4)NC(=O)[C@H](Cc4ccc(-c5ccccc5)cc4)NC3=O)cc2)cc1` [Example 5123] ({CH2CO}-[Ala(morpholin-4-yl)][Bip(4'-COOH)]D[Phe(3-Me)][Bip(4'-NHAc)][Bip][Phe(4-COOH)][NMeA][dL]H[Cha][Val(3-OH)]SC[Dab]-NH2; thioether N-14), the IC50 (nM, read-out: CBA Method 3) is 0.0094 µM. On to `Cc1cccc(C[C@@H]2NC(=O)[C@H](CC(=O)O)NC(=O)[C@H](Cc3ccc(OCC(=O)O)cc3)NC(=O)[C@H](CC(N)=O)NC(=O)CSC[C@@H](C(=O)N[C@@H](CCN)C(N)=O)NC(=O)[C@H](CCCN)NC(=O)[C@H](C(C)C)NC(=O)[C@H](CC3CCCCC3)NC(=O)[C@H](CCN)NC(=O)[C@@H](CC(C)C)NC(=O)[C@H](C)N(C)C(=O)[C@H](CCC(N)=O)NC(=O)[C@H](Cc3ccc(-c4ccccc4)cc3)NC(=O)[C@H](Cc3ccc(C(=O)O)cc3)NC2=O)c1` [Example 5187] ({CH2CO}-NY(Carboxymethyl)D[Phe(3-Me)][Phe(4-COOH)][Bip]Q[NMeA][dL][Dab][Cha]V[Orn]C[Dab]-NH2; thioether N-14), for which the IC50 (nM, read-out: CBA Method 3) worked out at 0.008 µM. Take `Cc1cccc(C[C@@H]2NC(=O)[C@H](CC(=O)O)NC(=O)[C@H](Cc3ccc(C(=O)O)cc3)NC(=O)[C@H](CN3CCOCC3)NC(=O)CSC[C@@H](C(=O)N[C@@H](CCN)C(N)=O)NC(=O)[C@H](CCC(=O)O)NC(=O)[C@H](C(C)C)NC(=O)[C@H](CC3CCCCC3)NC(=O)[C@H](Cc3cnc[nH]3)NC(=O)[C@@H](CC(C)C)NC(=O)[C@H](C)N(C)C(=O)[C@H](Cc3ccc(C(=O)O)cc3)NC(=O)[C@H](Cc3ccc(-c4ccccc4)cc3)NC(=O)[C@H](Cc3ccc(C(=O)O)cc3)NC2=O)c1` [Example 5254] ({CH2CO}-[Ala(morpholin-4-yl)][Phe(4-COOH)]D[Phe(3-Me)][Phe(4-COOH)][Bip][Phe(4-COOH)][NMeA][dL]H[Cha]VEC[Dab]-NH2; thioether N-14): the IC50 (nM, read-out: CBA Method 3) stood at 0.0013 µM. Take `Cc1cccc(C[C@@H]2NC(=O)[C@H](CC(=O)O)NC(=O)[C@H](Cc3ccc(OCC(=O)O)cc3)NC(=O)[C@H](CC3CCCCC3)NC(=O)CSC[C@@H](C(=O)N[C@@H](CCN)C(N)=O)NC(=O)[C@H](CCCN)NC(=O)[C@H](C(C)C)NC(=O)[C@H](CCC3CCCCC3)NC(=O)[C@H](CCN)NC(=O)[C@@H](CC(C)C)NC(=O)[C@H](C)N(C)C(=O)[C@H](CCC(N)=O)NC(=O)[C@H](Cc3ccc(-c4ccccc4)cc3)NC(=O)[C@H](Cc3ccc(C(=O)O)cc3)NC2=O)c1` [Example 5193] ({CH2CO}-[Cha]Y(Carboxymethyl)D[Phe(3-Me)][Phe(4-COOH)][Bip]Q[NMeA][dL][Dab][hCha]V[Orn]C[Dab]-NH2; thioether N-14): under setting [1], the IC50 came to 0.38 µM. Turning to `Cc1cccc(C[C@@H]2NC(=O)[C@H](CC(=O)O)NC(=O)[C@H](Cc3ccc(OCC(=O)O)cc3)NC(=O)[C@H](CCN)NC(=O)CSC[C@@H](C(=O)N[C@@H](CCN)C(N)=O)NC(=O)[C@H](CCCN)NC(=O)[C@H](C(C)C)NC(=O)[C@H](CC3CCCCC3)NC(=O)[C@H](CCN)NC(=O)[C@@H](CC(C)C)NC(=O)[C@H](C)N(C)C(=O)[C@H](CCC(N)=O)NC(=O)[C@H](Cc3ccc(-c4ccccc4)cc3)NC(=O)[C@H](Cc3ccc(C(=O)O)cc3)NC2=O)c1` [Example 5179] ({CH2CO}-[Dab]Y(Carboxymethyl)D[Phe(3-Me)][Phe(4-COOH)][Bip]Q[NMeA][dL][Dab][Cha]V[Orn]C[Dab]-NH2; thioether N-14), the IC50 (nM, read-out: CBA Method 3) was 0.0039 µM. In the case of `CC(C)C[C@H]1NC(=O)[C@H](C)N(C)C(=O)[C@H](Cc2ccc(C(=O)O)cc2)NC(=O)[C@H](Cc2ccc(-c3ccccc3)cc2)NC(=O)[C@H](CCc2ccccc2)NC(=O)[C@H](Cc2cccc(C(F)(F)F)c2)NC(=O)[C@H](CC(=O)O)NC(=O)[C@H](Cc2ccc(C(=O)O)cc2)NC(=O)[C@H](CN2CCOCC2)NC(=O)CSC[C@@H](C(=O)N[C@@H](CCN)C(N)=O)NC(=O)[C@H](CNC(=O)CCCC(=O)O)NC(=O)[C@H](C(C)C)NC(=O)[C@H](CC2CCCCC2)NC(=O)[C@H](CCN)NC1=O` [Example 5209] ({CH2CO}-[Ala(morpholin-4-yl)][Phe(4-COOH)]D[Phe(3-CF3)][hPhe][Bip][Phe(4-COOH)][NMeA][dL][Dab][Cha]V[Dap](Glutaryl)C[Dab]-NH2; thioether N-14), under setting [1], the IC50 worked out at 0.02 µM. For the molecule `Cc1cccc(C[C@@H]2NC(=O)[C@H](CC(=O)O)NC(=O)[C@H](Cc3ccc(OCC(=O)O)cc3)NC(=O)[C@H](CC(C(=O)O)C(=O)O)NC(=O)CSC[C@@H](C(=O)N[C@@H](CCN)C(N)=O)NC(=O)[C@H](CCCN)NC(=O)[C@H](C(C)C)NC(=O)[C@H](CC3CCCCC3)NC(=O)[C@H](CCN)NC(=O)[C@@H](CC(C)C)NC(=O)[C@H](C)N(C)C(=O)[C@H](CCC(N)=O)NC(=O)[C@H](Cc3ccc(-c4ccccc4)cc3)NC(=O)[C@H](Cc3ccc(C(=O)O)cc3)NC2=O)c1` [Example 5169] ({CH2CO}-[Gla]Y(Carboxymethyl)D[Phe(3-Me)][Phe(4-COOH)][Bip]Q[NMeA][dL][Dab][Cha]V[Orn]C[Dab]-NH2; thioether N-14), the IC50 (nM, read-out: CBA Method 3) was 0.0089 µM. As for `Cc1cccc(C[C@@H]2NC(=O)[C@H](CC(=O)O)NC(=O)[C@H](Cc3ccc(-c4ccc(C(=O)O)cc4)cc3)NC(=O)[C@H](C)NC(=O)CSC[C@@H](C(=O)N[C@@H](CCN)C(N)=O)NC(=O)[C@H](CO)NC(=O)[C@H](C(C)(C)O)NC(=O)[C@H](CC3CCCCC3)NC(=O)[C@H](Cc3cnc[nH]3)NC(=O)[C@@H](CC(C)C)NC(=O)[C@H](C)N(C)C(=O)[C@H](Cc3ccc(C(=O)O)cc3)NC(=O)[C@H](Cc3ccc(-c4ccccc4)cc3)NC(=O)[C@H](Cc3ccc(-c4ccc(C(=O)O)cc4)cc3)NC2=O)c1` [Example 5121] ({CH2CO}-A[Bip(4'-COOH)]D[Phe(3-Me)][Bip(4'-COOH)][Bip][Phe(4-COOH)][NMeA][dL]H[Cha][Val(3-OH)]SC[Dab]-NH2; thioether N-14), the IC50 under setting [1] amounted to 0.07 µM.
